According to patent publication US20240000949A1, “Nucleic Acid-Derivatized Therapeutics” (The University of Chicago, priority 2020, published 2024):
{Alexa647} = Alexa Fluor 647 dye

Tests used:
E0771 tumors = test: E0771 tumor growth after i.v. delivery (incl. antibody depletion, anti-PD-L1 and CTX combinations); assay type: in vivo, mouse; settings: E64-DNA 25 μg i.v., CTX 50 mg/kg
Protocol: E64-DNA or DNA (25 μg) was intravenously delivered (i.v.; retro-orbital) into E0771 tumor-bearing mice. E0771 tumor growth over 5 days after a single injection is shown. n=8/group. Statistical significance was calculated via two-tailed Student's t-test (p<0.05 values are provided); error bars indicate the mean of independent experiments±s.e.m. ns, not significant. All measurements (n) are biological replicates.
Experimental design for depleting TAMs with α-CSF1R antibody (top). Effect of IgG or α-CSF1R (300 μg) on E0771 tumor growth (bottom, left) and CD8^+ effector T cells in tumors (bottom, right) in mice treated with E64-DNA (n=8/group) or DNA (n=6/group). E64-DNA or DNA (25 μg) was intravenously delivered (i.v.; retro-orbital) into E0771 tumor-bearing mice.
Effects of α-CD8, α-PD-L1, or IgG antibodies on E0771 tumor growth in mice treated with E64-DNA or DNA. […]
E64-DNA or DNA (25 μg) was intravenously delivered (i.v.; retro-orbital) into E0771 tumor-bearing mice. […] Statistical significance was calculated via two-tailed Student's t-test (p<0.05 values are provided); error bars indicate the mean of independent experiments±s.e.m. ns, not significant. […]

[1] = test system: TAMs isolated from E0771 tumors; test: DQ-OVA degradation by TAMs treated ex vivo; assay type: cell-based, mouse; settings: 100 nM, 2h ex vivo
Protocol: FIGS. 46A-46B. A lysosome-targeted DNA nanodevice (E64-DNA) promotes antigen cross-presentation by TAMs. FIG. 43A, Representative images (left) and Pearson correlation (right) of co-localization of TMR-Dextran labeled lysosomes (green) with E64-DNA (red). Pearson correlation with and without a 20-pixel shift (˜lysosome diameter) of the green signal. n=15 cells/group. scale bar=[…]. FIG. 43B, DQ-OVA degradation by TAMs treated with E64-DNA, DNA, or E64 (100 nM) for 2h. n=3/group. Statistical significance was calculated via two-tailed Student's t-test (p<0.05 values are provided); error bars indicate the mean of independent experiments±s.e.m. ns; not significant. TAMs were isolated from E0771 tumors. All measurements (n) are biological replicates.
Analysis of lysosomal degradation by DQ-OVA. Lysosomal degradative capacity of macrophages was assessed by a DQ-OVA degradation assay (D-12053, Invitrogen®) according to the manufacturer's instruction. Briefly, 0.2 million cells were incubated with 10 μg/mL of DQ-OVA at room temperature for 15 min, washed, and incubated at 37° C. for another 15 min. DQ-OVA fluorescence was quantified by flow cytometry.

TAMs / OT-1 CD8+ T cells = test: MHCI-restricted antigen cross-presentation by TAMs (OVA-OT-1 CD8+ T cell system); assay type: cell-based, mouse; settings: 100 nM, alone
Protocol: OT-1 CD8^+ T-cell activation (FIG. 53B) and proliferation (FIG. 53C) after 72h of co-culture with TAMs. n=3/group. Vehicle (Veh)=phosphate-buffered saline. Statistical significance was calculated via two-tailed Student's t-test (p<0.05 values are provided); error bars indicate the mean of independent experiments±s.e.m. ns; not significant. TAMs were isolated from E0771 tumors. All measurements (n) are biological replicates.
CD3/CD28 antibodies were included as a positive control for T cell activation. n=3/group. Statistical significance was calculated via two-tailed Student's t-test (p<0.05 values are provided); error bars indicate the mean of independent experiments±s.e.m. All measurements (n) are biological replicates. […]
T cell activation—CD8^+ or CD4^+ T cells were treated with BD GolgiPlug for the final 6 h of coculture with macrophages to allow intracellular IFNγ accumulation. […] The percent of IFNγ^+/CD44^+CD8^+ T cells was quantified by flow cytometry. In some cases, CD8^+ T cell IFNγ production in the culture medium at 72h was quantified using a mouse IFN-γ ELISA kit (Invitrogen).
T cell proliferation—Isolated CD4^+ or CD8^+ T cells were labeled with 5 μM 5,6-carboxyfluorescein diacetate succinimidyl ester (CF SE, Invitrogen) according to the manufacturer's instructions. The number of proliferating cells (CF SE-diluted) was quantified using CountBright™ beads (Invitrogen). […]

tumor growth = settings: 1 mg, daily; cited from earlier work
[2] = test system: Lactate dehydrogenase (LDH) in BMDMs; test: LDH activity and lactate in BMDMs under hypoxia; assay type: cell-based, mouse; settings: hypoxic (1% 02), 24h, vs vehicle
Protocol: FIG. 82. […] Bone marrow-derived macrophages (BMDMs) were cultured under normoxic (n) or hypoxic (h, 1% 02) conditions for 24h in the presence of vehicle (veh), GNE, or GNE-DNA.
FIG. 83. […] Bone marrow-derived macrophages (BMDMs) were cultured under normoxic (n) or hypoxic (h, 1% 02) conditions for 24h in the presence of vehicle (veh), GNE, or GNE-DNA. Intracellular lactate levels in BMDMs are decreased by GNE or GNE-DNA under hypoxic conditions to levels compared to vehicle.
BMDMs were differentiated from bone marrow stem cells with L-cell conditioned media for six days as previously described (Kratz et al.).

BMDMs = test: Uptake of fluorescently labelled nucleic acid scaffolds by BMDMs (flow cytometry); assay type: cell-based, mouse; settings: pulsed with 50 nM scaffold 30 min, chased 15 min
Source text: FIGS. 1A-1B. Uptake of various oligonucleotides by bone marrow-derived macrophages (BMDMs). FIG. 1A, Schematic of various fluorescently labelled nucleic acid structures used for uptake studies in BMDMs. Each nucleic acid scaffold is either a single stranded or double stranded 38 mer DNA (D) or RNA (R) sequence, or a DNA:RNA hybrid or complex. Each scaffold is labelled with an Alexa Fluor® 647N fluorophore on the 5′ end of one of the strands. From left to right, the constructions tested were dsDNA (SEQ ID NO: 40 and SEQ ID NO: 41 or SEQ ID NO: 42), ssDNA (SEQ ID NO: 41), dsRNA (SEQ ID NO: 43 and SEQ ID NO: 44), ssRNA (SEQ ID NO: 43), and ssDNA:ssRNA (SEQ ID NO: 45 and SEQ ID NO: 46). FIG. 1B, BMDMs were pulsed with 100 nM of each nucleic acid scaffold for 30 min. The cells were then washed and chased for 15 min after which were subjected to flow cytometry based quantification. Mean fluorescence intensity (A/IFI) of nucleic acid scaffold uptake by BMDMs is shown.
Various fluorescently labelled scaffolds were tested in a variety of nucleic acid configurations (Table 1).
BMDMs were pulsed with 50 nM of each nucleic acid scaffold for 30 min. The cells were then washed and chased for 15 min after which they were subjected to flow cytometry quantification. A nucleic acid scaffold was then selected for subsequent experiments. […]

M2 BMDMs = test: Uptake by M2 BMDMs in vitro (wt and scavenger receptor knockouts; nucleic acid variants); assay type: cell-based, mouse; settings: 30 min
Protocol: FIG. 48. A lysosome-targeted DNA nanodevice (E64-DNA) promotes antigen cross-presentation by TAMs. E64-DNA uptake by M2 BMDMs from wt, Scarb1−/−, Msr1−/−, or Cd36−/− mice. Uptake was quantified by flow cytometry; n=3/group. Statistical significance was calculated via two-tailed Student's t-test (p<0.05 values are provided); error bars indicate the mean of independent experiments±s.e.m. ns; not significant. TAMs were isolated from E0771 tumors. All measurements (n) are biological replicates.
FIGS. 49A-49B. DNA nanodevice uptake and stability. FIG. 49A, Schematic of various fluorescently labeled nucleic acid structures used for uptake studies in BMDMs. Each nucleic acid scaffold is either a single stranded or double stranded 38 mer DNA or RNA sequence. Each scaffold is labelled with an Alexa Fluor® 647 fluorophore on the 5′ end of one of the strands. FIG. 49B, Uptake of various types of nucleic acids by M2 BMDMs. n=3/group. Statistical significance was calculated via two-tailed Student's t-test (p<0.05 values are provided); error bars indicate the mean of independent experiments±s.e.m. ns; not significant. […]
E64-DNA uptake by M2 BMDMs in vitro—E64-DNA (100 nM) or other types of nucleic acids (D1-D2, D2, R1-R2, R2) was incubated with 0.2 million M2-activated BMDMs from wt, Scarb1−/−, Msr1−/−, or Cd36−/− mice for 30 min, washed with PBS, and uptake was assessed by flow cytometry.

[3] = test system: tumor associated macrophages; test: In vivo macrophage labeling by i.v. fluorophore labeled dsDNA, TNBC model; settings: 25 μg dsDNA i.v., TNBC mouse model
Protocol: (§1) BMDMs were pulsed with 50 nM of each nucleic acid scaffold for 30 min. The cells were then washed and chased for 15 min after which they were subjected to flow cytometry quantification. A nucleic acid scaffold was then selected for subsequent experiments. To test the efficiency of macrophage labeling in vivo, 25 μg of fluorophore labeled dsDNA was injected intravenously into a mouse model of triple-negative breast cancer (TNBC).

alveolar macrophages = test: In vivo labeling by intratracheal dsDNA; set-up: species or system mouse; settings: 100 μg dsDNA intratracheally
Protocol: (§2) FIGS. 2A-2B. dsDNA preferentially targets macrophages in other tissues. FIG. 2A, Fluorescently labeled dsDNA (100 μg) was injected intratracheally into mice and cells were harvested 2 hr post injection with a bronchoalveolar lavage. Uptake by alveolar macrophages (AM, CD45^+CD11b^−CD11c^+) and alveolar neutrophils (AN, CD45^+CD11b^+Ly6G^+) was quantified by flow cytometry. FIG. 2B, Fluorescently labeled dsDNA (100 μg) was injected intraperitoneally into mice and visceral adipose tissue was harvested 4 hr post injection. Adipose tissue was digested to obtain the stromal vascular fraction. dsDNA uptake by cells in the stromal vascular fraction was quantified by flow cytometry. ATM=adipose tissue macrophage (CD45^+CD11b^+F4/80^+).
as §1

[4] = test system: adipose tissue macrophages; test: In vivo labeling by intraperitoneal dsDNA; set-up: species or system mouse; settings: 100 μg dsDNA intraperitoneally
Protocol: as §2, §1

Row | Molecule | DQ-OVA degradation by TAMs [1] | antigen cross-presentation by TAMs (TAMs / OT-1 CD8+ T cells) | uptake of nucleic acid scaffold by BMDMs (BMDMs) | internalization of 38 nucleotide Alexa 647 scaffolds by M2 BMDMs (M2 BMDMs) | other results
1 | O=P1(N(CCCl)CCCl)NCCCO1 (stereo not drawn) [CTX, cyclophosphamide] |  |  |  |  | sustained tumor regression in the E0771 model (E0771 tumors): could not be replicated
2 | CC(C)C[C@H](NC(=O)[C@@H]1O[C@H]1C(=O)O)C(=O)NCCCCNC(=N)N [E64, reference compound] | could not be reproduced | did not affect cross-presentation |  |  | tumor growth, free E64 high doses (tumor growth): limited impact on tumor growth
3 | O=C1N[C@](c2ccc(N3CCOCC3)cc2)(c2ccsc2)CC(O)=C1Sc1ccccc1Cl [GNE, (R)-GNE-140] |  |  |  |  | Lactate dehydrogenase (LDH) activity in BMDMs [2]: decreased; intracellular lactate levels in BMDMs [2]: decreased
4 | ssDNA: single stranded 38 mer DNA, SEQ ID NO: 41, Alexa 647 labelled (TATATATAGGATCTTGCTGTCTGGTGTGCAGTGTTGAT; DNA, 5' {Alexa647}, backbone and methylation of C not given here) |  |  | maximal uptake | required a ssDNA or dsDNA scaffold | 
5 | dsDNA: 38-mer double stranded DNA, SEQ ID NO: 40 and SEQ ID NO: 41, Alexa 647 labelled; targeting module without drug (nucleic acid, listed as DNA, chemistry not fully specified, targeting module without drug) chain 1: ATCAACACTGCACACCAGACAGCAAGATCCTATATATA chain 2: TATATATAGGATCTTGCTGTCTGGTGTGCAGTGTTGAT | could not be reproduced | did not affect cross-presentation | maximal uptake | required a ssDNA or dsDNA scaffold | labeling of tumor associated macrophages preferentially over any other cell type in the tumor microenvironment [3]: > 90%; labeling of alveolar macrophages preferentially over other cell types (alveolar macrophages): > 95%; labeling of adipose tissue macrophages preferentially over other cell types [4]: 70%
